Test [1] is described as follows: Antiproliferative activity against human CRL-2813 cells incubated for 5 days by SRB assay. The test is classed as functional, cell-based. To be noted: CRL2813, 120 h.
Test [2] can be described thus: Antiproliferative activity against human CRL-2351 cells incubated for 5 days by SRB assay. It counts as functional, cell-based. To be noted: CRL-2351, 120 h.
For test [3], the target named is Interferon-induced, double-stranded RNA-activated protein kinase (Homo sapiens) (UniProt P19525). Briefly: Induction of eIF2alpha phosphorylation (unknown origin) assessed as fold increase in ATF-4 stimulation at 20 uM by dual luciferase reporter assay. To be noted: filed as activator.
Test [4] shares this target. Description: Induction of eIF2alpha phosphorylation (unknown origin) assessed as fold increase in ATF-4 stimulation at 10 uM by dual luciferase reporter assay.
For test [5] the target is unchanged. Description: Induction of eIF2alpha phosphorylation (unknown origin) assessed as fold increase in ATF-4 stimulation at 40 uM by dual luciferase reporter assay. To be noted: filed as activator.
Test [6] shares this target. Description: Induction of eIF2alpha phosphorylation (unknown origin) assessed as fold increase in ATF-4 stimulation at 80 uM by dual luciferase reporter assay. The conditions noted are these: filed as activator.
The target is the same in test [7]. Description: Induction of eIF2alpha phosphorylation in human CRL-2813 cells assessed as fold increase in CHOP expression incubated for 6 hrs by RT-PCR analysis. The test is classed as cell-based. The conditions noted are these: filed as activator, dose 10.0 µM.
Test [8] has the same target. Description: Induction of eIF2alpha phosphorylation (unknown origin) assessed as fold increase in ATF-4 stimulation at 5 uM by dual luciferase reporter assay. The conditions noted are these: filed as activator.
For test [9] the target is unchanged. Briefly: Induction of eIF2alpha phosphorylation (unknown origin) assessed as fold increase in ATF-4 stimulation at 2.5 uM by dual luciferase reporter assay. To be noted: filed as activator.

Consider 36 compounds from ChEMBL document CHEMBL5236655, “Role of symmetry in 3,3-diphenyl-1,3-dihydroindol-2-one derivatives as inhibitors of translation initiation” (Bioorg Med Chem Lett, 2023).

Each structure is given as a SMILES string.

Chain of Interferon-induced, double-stranded RNA-activated protein kinase (Homo sapiens) (P19525 whole entry): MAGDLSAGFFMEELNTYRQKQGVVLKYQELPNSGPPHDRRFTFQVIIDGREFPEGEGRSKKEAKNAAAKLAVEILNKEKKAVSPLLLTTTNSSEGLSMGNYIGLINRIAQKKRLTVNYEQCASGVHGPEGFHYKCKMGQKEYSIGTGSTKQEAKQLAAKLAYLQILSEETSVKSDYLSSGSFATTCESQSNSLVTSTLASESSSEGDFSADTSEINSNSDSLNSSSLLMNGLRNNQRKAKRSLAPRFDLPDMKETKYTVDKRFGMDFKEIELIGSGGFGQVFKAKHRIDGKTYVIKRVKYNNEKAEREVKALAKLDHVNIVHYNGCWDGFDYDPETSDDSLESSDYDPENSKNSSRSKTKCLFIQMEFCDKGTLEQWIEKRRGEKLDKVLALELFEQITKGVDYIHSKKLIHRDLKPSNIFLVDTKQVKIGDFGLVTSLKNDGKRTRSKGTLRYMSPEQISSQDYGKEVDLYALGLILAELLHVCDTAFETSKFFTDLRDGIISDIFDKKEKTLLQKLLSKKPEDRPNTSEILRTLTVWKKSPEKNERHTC

For the compound `CCN(CC)CCOc1ccc(C(C)(C)C)cc1C1(c2cc(C(C)(C)C)ccc2O)C(=O)Nc2ccccc21` (stereo not drawn), the IC50 in [1] is 1500 nM; in test [2], 600 nM. Also, the fold change (FC) in [3] turned out to be 16.7.

In the case of `CC(C)(C)c1ccc(O)c(C2(c3cc(C(C)(C)C)ccc3OCCN3CCCC3)C(=O)Nc3ccccc32)c1` (stereo not drawn), the half-inhibitory concentration (IC50) was 10700 nM in [1] and 1000 nM in [2]. In addition, the fold change (FC) in [4] (filed as activator) was 2.73.

On to `CC(C)(C)c1ccc(OCCN2CCNCC2)c(C2(c3cc(C(C)(C)C)ccc3OCCN3CCNCC3)C(=O)Nc3ccccc32)c1`, for which the IC50 in test [1] was determined as 1500 nM; in [2] it was 800 nM. Also, in [5], the fold change (FC) was determined as 11.4.

As for `CN1CCN(CCOc2ccc(C(C)(C)C)cc2C2(c3cc(C(C)(C)C)ccc3O)C(=O)Nc3ccccc32)CC1` (stereo not drawn), the IC50 in test [1] was determined as 1400 nM; in [2], 750 nM. Also, the fold change (FC) in test [3] was determined as 24.6.

Turning to `CC(C)(C)c1ccc(O)c(C2(c3cc(C(C)(C)C)ccc3OCCBr)C(=O)N(CCBr)c3ccccc32)c1` (stereo not drawn), the values for the IC50 in test [1] and in test [2] were 700 nM and 4600 nM, respectively. In addition, in [6], the fold change (FC) turned out to be 1.99.

With `CN(C)CCOc1ccc(C(C)(C)C)cc1C1(c2cc(C(C)(C)C)ccc2OCCN(C)C)C(=O)Nc2ccccc21`, the results for the IC50 in [1] and in test [2] were 12500 nM and 10200 nM, respectively. The fold change (FC) in test [5] was 1.34.

For `CC(C)(C)c1ccc(OCCN2CCCCC2)c(C2(c3cc(C(C)(C)C)ccc3OCCN3CCCCC3)C(=O)Nc3ccccc32)c1`, the values for the IC50 in test [1] and in test [2] were 11600 nM and 2140 nM, respectively. Further, the fold change (FC) in test [6] stood at 5.91.

On to `CCN(CC)CCOc1ccc(C(C)(C)C)cc1C1(c2cc(C(C)(C)C)ccc2OCCN(CC)CC)C(=O)Nc2ccccc21`, for which the IC50 in test [1] is 1000 nM; in test [2] it was no more than 540 nM. For the same compound, the fold change (FC) in [4] is less than 0.54.

As for `CC(C)(C)c1ccc(O)c(C2(c3cc(C(C)(C)C)ccc3O)C(=O)N(CCBr)c3ccccc32)c1`, the IC50 was 1400 nM in test [1] and 1500 nM in test [2]. Also, the fold change (FC) in test [5] amounted to 9.6.

As for `CC(C)(C)c1ccc(OCCO)c(C2(c3cc(C(C)(C)C)ccc3OCCO)C(=O)Nc3ccccc32)c1`, the concentration for half-maximal inhibition (IC50) in test [1] stood at 2900 nM; in test [2], 2700 nM. Also, the fold change (FC) in test [3] came out at 3.42.

In the case of `CC(C)(C)c1ccc(OCCN2CCOCC2)c(C2(c3cc(C(C)(C)C)ccc3OCCN3CCOCC3)C(=O)Nc3ccccc32)c1`, the IC50 in test [1] is 2400 nM; in test [2], 1680 nM. Also, the fold change (FC) worked out at 3 in [7] and 4.98 in [3].

With `CN(C)CCN1C(=O)C(c2cc(C(C)(C)C)ccc2O)(c2cc(C(C)(C)C)ccc2O)c2ccccc21`, the IC50 was greater than 20000 nM in test [1] and 2700 nM in test [2]. Moreover, the values for the fold change (FC) in [7] and in test [3] were 3 and 7.12, respectively.

For the compound `CC(C)(C)c1ccc(OCCN2CCCC2)c(C2(c3cc(C(C)(C)C)ccc3OCCN3CCCC3)C(=O)Nc3ccccc32)c1`, the figures for the IC50 in test [1] and in [2] were 800 nM and 650 nM, respectively. The fold change (FC) in test [8] was found to be 13.9.

In the case of `CC(C)(C)c1ccc(O)c(C2(c3cc(C(C)(C)C)ccc3OCCN3CCCCC3)C(=O)Nc3ccccc32)c1` (stereo not drawn), the 50% inhibitory concentration (IC50) in test [1] stood at 3350 nM; in [2] it was 700 nM. Further, in [3], the fold change (FC) was found to be 4.15.

Take `CC(C)(C)c1ccc(O)c(C2(c3cc(C(C)(C)C)ccc3OCCN3CCOCC3)C(=O)N(CCN3CCOCC3)c3ccccc32)c1` (stereo not drawn): the IC50 in [1] worked out at 2000 nM; in test [2], 3600 nM. Further, the fold change (FC) in [6] worked out at 31.9.

Consider `CN1CCN(CCOc2ccc(C(C)(C)C)cc2C2(c3cc(C(C)(C)C)ccc3OCCN3CCN(C)CC3)C(=O)Nc3ccccc32)CC1`, for which the IC50 in test [1] was 740 nM; in [2], 200 nM. The fold change (FC) in test [4] (filed as activator) was 9.7.

For `CN(C)CCOc1ccc(C(C)(C)C)cc1C1(c2cc(C(C)(C)C)ccc2O)C(=O)N(CCN(C)C)c2ccccc21` (stereo not drawn), the IC50 in test [1] came out at 900 nM; in test [2], 300 nM. Besides, the fold change (FC) in [4] (filed as activator) came to 14.3.

Take `COCOc1ccc(C(C)(C)C)cc1C1(c2cc(C(C)(C)C)ccc2O)C(=O)Nc2ccccc21` (stereo not drawn): the IC50 turned out to be 2200 nM in [1] and 4200 nM in test [2]. Moreover, the fold change (FC) in test [5] was found to be 1.21.

For `CN(C)CCOc1ccc(C(C)(C)C)cc1C1(c2cc(C(C)(C)C)ccc2OCCN(C)C)C(=O)N(CCN(C)C)c2ccccc21`, the figures for the IC50 in test [1] and in test [2] were 700 nM and 500 nM, respectively. Also, in test [9], the fold change (FC) is 16.8.

Turning to `CC(C)(C)c1ccc(O)c(C2(c3cc(C(C)(C)C)ccc3OCCN3CCNCC3)C(=O)Nc3ccccc32)c1` (stereo not drawn), the figures for the IC50 in test [1] and in test [2] were 1500 nM and 900 nM, respectively. The fold change (FC) in test [3] came out at 15.1.

As to `CCN(CC)CCOc1ccc(C(C)(C)C)cc1C1(c2cc(C(C)(C)C)ccc2OCCN(CC)CC)C(=O)N(CCN(CC)CC)c2ccccc21`, the IC50 was 720 nM in [1] and no more than 540 nM in [2]. Also, the fold change (FC) in test [9] was determined as 14.3.

On to `CC(C)(C)c1ccc(O)c(C2(c3cc(C(C)(C)C)ccc3OCCN3CCCC3)C(=O)N(CCN3CCCC3)c3ccccc32)c1` (stereo not drawn), for which the IC50 is 7250 nM in test [1] and 3600 nM in [2]. Further, the fold change (FC) in test [5] was 9.09.

For `CN(C)CCN1C(=O)C(c2cc(C(C)(C)C)ccc2O)(c2cc(C(C)(C)C)ccc2OCCN2CCCC2)c2ccccc21` (stereo not drawn), the half-maximal inhibitory concentration (IC50) in test [1] and in [2] was no more than 540 nM each time. Further, the fold change (FC) in test [4] (filed as activator) was determined as 9.08.

For `CC(C)(C)c1ccc(OCCN2CCCC2)c(C2(c3cc(C(C)(C)C)ccc3OCCN3CCCC3)C(=O)N(CCN3CCCC3)c3ccccc32)c1`, the concentration for half-maximal inhibition (IC50) was 1470 nM in [1] and 550 nM in [2]. Also, the fold change (FC) in test [9] was 12.1.

With `CC(C)(C)c1ccc(O)c(C2(c3cc(C(C)(C)C)ccc3OCCN3CCOCC3)C(=O)Nc3ccccc32)c1` (stereo not drawn), the IC50 in [1] was 1650 nM; in test [2] it was no more than 540 nM. Also, the fold change (FC) turned out to be 3 in [7] and 5.69 in test [5].

Turning to `CC(C)(C)c1ccc(O)c(C2(c3cc(C(C)(C)C)ccc3OCCO)C(=O)Nc3ccccc32)c1` (stereo not drawn), the IC50 in test [1] came out at 2900 nM; in test [2], 8800 nM. Further, the fold change (FC) in test [5] was 10.8.

Turning to `COCCOc1ccc(C(C)(C)C)cc1C1(c2cc(C(C)(C)C)ccc2OCCOC)C(=O)Nc2ccccc21`, the IC50 was 700 nM in test [1] and 4600 nM in test [2]. In [6], the fold change (FC) came out at 1.58.

The compound `CN1CCN(CCOc2ccc(C(C)(C)C)cc2C2(c3cc(C(C)(C)C)ccc3OCCN3CCN(C)CC3)C(=O)N(CCN3CCN(C)CC3)c3ccccc32)CC1` had a concentration for half-maximal inhibition (IC50) in test [2] of 600 nM. The fold change (FC) in [4] (filed as activator) was 6.73.

For the compound `CC(C)(C)c1ccc(O)c(C2(c3cc(C(C)(C)C)ccc3O)C(=O)Nc3ccccc32)c1`, the IC50 in test [1] is 10200 nM; in test [2] it was 2800 nM. Further, the fold change (FC) in test [7] came out at 3; in test [4] (filed as activator) it was 5.2.

Consider `CC(=O)OCCOc1ccc(C(C)(C)C)cc1C1(c2cc(C(C)(C)C)ccc2OCCOC(C)=O)C(=O)Nc2ccccc21`, for which the 50% inhibitory concentration (IC50) worked out at 2000 nM in [1] and 2500 nM in [2]. For the same compound, the fold change (FC) in [6] stood at 2.07.

With `CC(C)(C)c1ccc(O)c(C2(c3cc(C(C)(C)C)ccc3OCCBr)C(=O)Nc3ccccc32)c1` (stereo not drawn), the IC50 in test [1] came out at 1000 nM; in test [2], 2400 nM. Moreover, in test [5], the fold change (FC) turned out to be 12.9.

With `CN(C)CCOc1ccc(C(C)(C)C)cc1C1(c2cc(C(C)(C)C)ccc2O)C(=O)Nc2ccccc21` (stereo not drawn), the 50% inhibitory concentration (IC50) turned out to be 1200 nM in [1] and 1900 nM in test [2]. Moreover, the fold change (FC) in test [3] was 4.65.

Regarding `CN(C)CCN1C(=O)C(c2cc(C(C)(C)C)ccc2OCCN2CCCC2)(c2cc(C(C)(C)C)ccc2OCCN2CCCC2)c2ccccc21`, the IC50 amounted to 800 nM in [1] and 540 nM in [2]. For the same compound, the fold change (FC) in [9] was determined as 11.8.

Turning to `CC(C)(C)c1ccc(OCCN2CCOCC2)c(C2(c3cc(C(C)(C)C)ccc3OCCN3CCOCC3)C(=O)N(CCN3CCOCC3)c3ccccc32)c1`, the IC50 stood at 2700 nM in test [1] and 2300 nM in test [2]. The fold change (FC) in test [7] amounted to 3; in test [5] it was 10.8.

Consider `CC(=O)OCCOc1ccc(C(C)(C)C)cc1C1(c2cc(C(C)(C)C)ccc2O)C(=O)Nc2ccccc21` (stereo not drawn), for which the IC50 in test [1] was 1600 nM; in [2], 2700 nM. The fold change (FC) in [5] was determined as 8.59.

On to `CC(C)(C)c1ccc(O)c(C2(c3cc(C(C)(C)C)ccc3O)C(=O)N(CCN3CCOCC3)c3ccccc32)c1`, for which the values for the IC50 in [1] and in test [2] were 1600 nM and 2200 nM, respectively. For the same compound, the fold change (FC) in [7] was 3; in test [5], 4.3.
